Calls of active or inactive are those of the source.
What was measured:
[1] = molecular target: Luciferin 4-monooxygenase (Photinus pyralis, UniProt P08659); test: firefly luciferase enzyme inhibitors, dose response, biochemical, luminescence (AID 1891)
[2] = molecular target: T1, DNA dC->dU-editing enzyme APOBEC-3A (Homo sapiens, UniProt P31941); test: SAR analysis of small molecule inhibitors of APOBEC3A DNA Deaminase via a fluorescence-based single-stranded DNA deaminase assay.; format: functional; conditions: read-out: IC50_Mean
T1 sequence (P31941 whole entry): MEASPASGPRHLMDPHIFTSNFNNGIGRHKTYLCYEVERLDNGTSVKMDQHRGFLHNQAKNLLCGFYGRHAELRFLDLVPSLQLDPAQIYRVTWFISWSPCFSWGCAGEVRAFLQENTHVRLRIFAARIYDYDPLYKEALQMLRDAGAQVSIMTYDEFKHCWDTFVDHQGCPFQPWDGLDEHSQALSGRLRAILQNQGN

[3] = molecular target: T2, Mannose-6-phosphate isomerase (Homo sapiens, UniProt P34949); test: PMI enzyme inhibitors, confirmation, biochemical, fluorescence intensity (AID 1535)
T2 sequence (P34949 whole entry): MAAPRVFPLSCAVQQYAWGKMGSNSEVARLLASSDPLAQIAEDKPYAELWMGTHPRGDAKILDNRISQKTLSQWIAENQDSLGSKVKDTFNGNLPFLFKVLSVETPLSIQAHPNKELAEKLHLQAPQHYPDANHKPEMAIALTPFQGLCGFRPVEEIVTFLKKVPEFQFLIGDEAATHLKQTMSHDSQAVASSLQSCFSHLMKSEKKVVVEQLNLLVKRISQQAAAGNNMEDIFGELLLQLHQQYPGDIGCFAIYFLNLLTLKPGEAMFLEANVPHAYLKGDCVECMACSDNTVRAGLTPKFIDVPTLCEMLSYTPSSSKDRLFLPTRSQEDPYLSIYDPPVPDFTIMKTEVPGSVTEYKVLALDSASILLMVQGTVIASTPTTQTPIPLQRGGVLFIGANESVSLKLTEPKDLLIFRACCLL

[4] = molecular target: T3, DNA dC->dU-editing enzyme APOBEC-3G (Homo sapiens, UniProt Q9HC16); test: Dose Response confirmation of small molecule APOBEC3G DNA Deaminase Inhibitors via a fluorescence-based single-stranded DNA deaminase assay. [Related pubchem assays (depositor defined):AID493012, AID493028]; format: functional
T3 sequence (Q9HC16 whole entry): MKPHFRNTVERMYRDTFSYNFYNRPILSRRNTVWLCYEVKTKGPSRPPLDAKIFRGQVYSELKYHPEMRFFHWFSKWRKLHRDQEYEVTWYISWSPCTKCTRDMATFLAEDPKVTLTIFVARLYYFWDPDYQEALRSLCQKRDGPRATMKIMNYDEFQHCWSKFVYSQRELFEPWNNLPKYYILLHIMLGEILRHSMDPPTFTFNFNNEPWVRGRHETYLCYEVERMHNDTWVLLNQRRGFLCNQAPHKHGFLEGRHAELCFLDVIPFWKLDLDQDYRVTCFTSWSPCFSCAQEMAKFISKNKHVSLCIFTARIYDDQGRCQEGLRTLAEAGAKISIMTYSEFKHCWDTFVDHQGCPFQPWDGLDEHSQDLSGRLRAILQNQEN

[5] = molecular target: T1, DNA dC->dU-editing enzyme APOBEC-3A; test: SAR analysis of small molecule inhibitors of APOBEC3A DNA Deaminase via a fluorescence-based single-stranded DNA deaminase assay - Set 2.; format: functional; conditions: read-out: IC50_Mean
Leucine aminopeptidase = molecular target: T4, Leucine aminopeptidase (Plasmodium falciparum 3D7, UniProt Q8IL11); test: P. falciparum M17LAP inhibitors, primary screen, biochemical, fluorogenic H-Leu-NHMec substrate, 1536-well (AID 1619); format: functional
T4 sequence (Q8IL11 whole entry): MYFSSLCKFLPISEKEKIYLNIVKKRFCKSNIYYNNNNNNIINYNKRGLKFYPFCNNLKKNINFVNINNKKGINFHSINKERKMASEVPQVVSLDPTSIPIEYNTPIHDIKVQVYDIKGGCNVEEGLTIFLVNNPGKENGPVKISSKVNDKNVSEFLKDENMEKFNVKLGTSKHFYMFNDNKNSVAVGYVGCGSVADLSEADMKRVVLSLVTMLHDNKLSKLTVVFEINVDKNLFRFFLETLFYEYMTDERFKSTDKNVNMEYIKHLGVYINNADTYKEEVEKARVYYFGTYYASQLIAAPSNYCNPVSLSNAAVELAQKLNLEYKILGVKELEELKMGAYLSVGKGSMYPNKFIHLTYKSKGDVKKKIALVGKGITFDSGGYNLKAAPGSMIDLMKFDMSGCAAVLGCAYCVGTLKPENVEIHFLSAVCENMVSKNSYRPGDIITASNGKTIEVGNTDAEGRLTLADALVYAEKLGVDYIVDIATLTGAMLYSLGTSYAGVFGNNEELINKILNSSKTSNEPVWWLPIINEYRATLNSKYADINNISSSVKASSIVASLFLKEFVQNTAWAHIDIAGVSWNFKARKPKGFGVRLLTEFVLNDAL

[6] = molecular target: T3, DNA dC->dU-editing enzyme APOBEC-3G; test: APOBEC3G deaminase inhibitors, SAR follow-up, biochemical, fluorescence, single-stranded DNA substrate (AID 602136); format: functional; conditions: read-out: IC50_Mean
[7] = molecular target: FAD-linked sulfhydryl oxidase ALR (Homo sapiens, UniProt P55789); test: inhibitors of human ALR sulfhydryl oxidase, dose response, biochemical, H2O2 detection, luminescence, cherry-pick (AID 493248)
[8] = molecular target: T3, DNA dC->dU-editing enzyme APOBEC-3G; test: SAR analysis of small molecule inhibitors of APOBEC3G DNA Deaminase via a fluorescence-based single-stranded DNA deaminase assay - Set 2.; format: functional; conditions: read-out: IC50_Mean
Phosphomannomutase 2 = Phosphomannomutase 2 (Homo sapiens, UniProt O15305); test: Counter screen SAR assay for PMM2 inhibitors via a fluorescence intensity assay. [Related pubchem assays (depositor defined):AID1545, AID1574]
[9] = molecular target: T1, DNA dC->dU-editing enzyme APOBEC-3A; test: APOBEC3A DNA deaminase inhibitors, dose response, biochemical (AID 504722); format: functional
[10] = Vero cell cytotoxicity, dose response, cytotoxicity control for M. tuberculosis growth inhibitor project, Vero cells, purified and synthesized compounds, set 4 (AID 504854); format: functional; conditions: Mycobacterium tuberculosis
[11] = THP-1 cell cytotoxicity, cytotoxicity control, set 4 (AID 504911); format: functional; conditions: Mycobacterium tuberculosis
[12] = cytotoxicity toward NIH3T3 fibroblasts, dose response, counter-screen, cell-based, ATP luminescence, mouse fibroblasts (AID 2010); format: functional;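 also: cells exposed to compound for about 90 hours before reading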
[13] = A Cell Based Secondary Assay to Explore Cytotoxicity in THP-1 Cells of Compounds that Modulate Mycobacterium tuberculosis in Media Containing Glycerol versus Media without Glycerol (2).; format: functional
[14] = THP-1 cell cytotoxicity, dose response, cytotoxicity control, set 3 (AID 504852); format: functional; conditions: Mycobacterium tuberculosis
[15] = microbe, parasite or virus in culture; format: functional; conditions: Mycobacterium tuberculosis
[16] = inhibitors of intracellular T. cruzi replication, confirmation, NIH3T3 host cells, beta-gal luminescence (AID 2044); format: functional, cell-based;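 also: intracellular parasites grown in NIH/3T3 mouse fibroblasts as host cells; luminescent beta-galactosidase reporter signal from transgenic T. cruzi replicating inside host cells; inhibitors lower the luminescence signal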
[17] = Vero cell cytotoxicity, dose response, cytotoxicity control for M. tuberculosis growth inhibitor project, Vero cells, purified and synthesized compounds, set 5 (AID 504909); format: functional; conditions: Mycobacterium tuberculosis
[18] = THP-1 cell cytotoxicity, dose response, cytotoxicity control for non-replicating M. tuberculosis project (AID 489025); format: functional
[19] = HepG2 cell cytotoxicity, cytotoxicity control, set 4 (AID 504910); format: functional; conditions: Mycobacterium tuberculosis
[20] = Vero cell cytotoxicity, cytotoxicity control for M. tuberculosis inhibitor project, purified and synthesized samples, set 3 (AID 504684); format: functional
[21] = Vero E6 cell cytotoxicity, dose response, cytotoxicity control for non-replicating M. tuberculosis project, secondary assay (AID 492998); format: functional, VeroE6; conditions: Vero C1008
[22] = HepG2 cell cytotoxicity, dose response, cytotoxicity control, set 3 (AID 504853); format: functional; conditions: Mycobacterium tuberculosis
[23] = A Cell Based Secondary Assay to Explore Cytotoxicity in HepG2 Cells of Compounds that Modulate Mycobacterium tuberculosis in Media Containing Glycerol versus Media without Glycerol (2).; format: functional
cells = format: functional
[24] = molecular target: Casein kinase I isoform delta (Homo sapiens, UniProt P48730); format: functional;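 also: measured as one member (CSNK1D) of a kinome panel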
[25] = molecular target: Mitogen-activated protein kinase kinase kinase kinase 4 (Homo sapiens, UniProt O95819); format: functional
Sequence of Mitogen-activated protein kinase kinase kinase kinase 4 (O95819 whole entry): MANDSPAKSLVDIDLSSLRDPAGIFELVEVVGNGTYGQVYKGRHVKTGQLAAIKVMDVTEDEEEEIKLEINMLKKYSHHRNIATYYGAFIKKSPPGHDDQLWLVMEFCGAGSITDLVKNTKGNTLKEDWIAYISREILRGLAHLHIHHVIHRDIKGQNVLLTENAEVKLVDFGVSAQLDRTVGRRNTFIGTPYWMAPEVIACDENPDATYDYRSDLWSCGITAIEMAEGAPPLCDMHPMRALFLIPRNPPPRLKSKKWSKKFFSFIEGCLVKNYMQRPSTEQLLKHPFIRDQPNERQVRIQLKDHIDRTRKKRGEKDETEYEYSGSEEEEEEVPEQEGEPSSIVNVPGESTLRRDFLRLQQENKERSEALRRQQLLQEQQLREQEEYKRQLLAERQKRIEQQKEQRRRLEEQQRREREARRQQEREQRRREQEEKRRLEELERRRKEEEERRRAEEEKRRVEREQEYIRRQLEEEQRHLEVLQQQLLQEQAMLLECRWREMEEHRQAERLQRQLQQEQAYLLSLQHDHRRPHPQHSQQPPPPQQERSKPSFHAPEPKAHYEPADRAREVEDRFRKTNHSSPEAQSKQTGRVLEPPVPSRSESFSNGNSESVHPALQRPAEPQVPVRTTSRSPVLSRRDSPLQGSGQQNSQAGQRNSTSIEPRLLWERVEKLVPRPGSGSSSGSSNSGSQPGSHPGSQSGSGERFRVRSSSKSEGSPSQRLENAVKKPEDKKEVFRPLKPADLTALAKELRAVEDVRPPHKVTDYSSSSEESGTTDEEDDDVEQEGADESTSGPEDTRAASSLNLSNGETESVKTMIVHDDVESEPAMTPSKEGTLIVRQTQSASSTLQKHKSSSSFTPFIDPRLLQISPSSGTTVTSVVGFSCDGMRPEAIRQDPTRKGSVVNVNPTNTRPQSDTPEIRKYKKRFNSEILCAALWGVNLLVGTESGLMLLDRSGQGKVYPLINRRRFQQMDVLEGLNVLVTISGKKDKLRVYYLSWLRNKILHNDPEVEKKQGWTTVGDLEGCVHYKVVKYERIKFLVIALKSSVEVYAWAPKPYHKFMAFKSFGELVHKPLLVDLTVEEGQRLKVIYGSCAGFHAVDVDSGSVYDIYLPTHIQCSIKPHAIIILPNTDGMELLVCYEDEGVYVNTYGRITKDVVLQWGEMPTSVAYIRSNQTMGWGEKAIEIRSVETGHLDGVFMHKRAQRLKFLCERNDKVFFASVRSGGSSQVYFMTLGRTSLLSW

[26] = molecular target: Serine/threonine-protein kinase D3 (Homo sapiens, UniProt O94806); format: functional;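 also: determined within a kinase panel screen, with PRKCN as the panel member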
[27] = molecular target: Melanin-concentrating hormone receptor 1 (Homo sapiens, UniProt Q99705); test: Late-stage fluorescence-based counterscreen for antagonists of the G-protein coupled receptor 7 (GPR7): cell-based dose response assay to identify antagonists of the melanin-concentrating hormone receptor 1 (MCHR1) Set 6.; format: functional
[28] = molecular target: T5, Neuropeptides B/W receptor type 1 (Homo sapiens, UniProt P48145); test: GPR7 antagonist potency, late-stage follow-up, cell-based, fluorescence, dose response, set 6 (AID 588583); format: functional
T5 sequence (P48145 whole entry): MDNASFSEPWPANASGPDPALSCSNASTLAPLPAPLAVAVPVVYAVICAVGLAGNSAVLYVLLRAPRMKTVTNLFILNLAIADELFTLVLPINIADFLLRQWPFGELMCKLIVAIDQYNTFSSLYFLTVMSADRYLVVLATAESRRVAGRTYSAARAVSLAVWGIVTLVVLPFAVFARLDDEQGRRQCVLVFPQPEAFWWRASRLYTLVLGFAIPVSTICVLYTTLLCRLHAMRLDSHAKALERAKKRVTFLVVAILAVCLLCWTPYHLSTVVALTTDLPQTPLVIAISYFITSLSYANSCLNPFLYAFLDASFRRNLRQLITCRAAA

[29] = molecular target: Serine/threonine-protein kinase PLK1 (Homo sapiens, UniProt P53350); format: functional;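 also: PLK1 measured as one member of a kinome-wide profiling panel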
[30] = molecular target: Serine/threonine-protein kinase PLK3 (Homo sapiens, UniProt Q9H4B4); format: functional
[31] = molecular target: Ribosomal protein S6 kinase beta-1 (Homo sapiens, UniProt P23443); format: functional;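 also: measured as one member of a kinome-wide profiling panel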
[32] = molecular target: Serine/threonine-protein kinase Nek2 (Homo sapiens, UniProt P51955); format: functional
[33] = molecular target: Vascular endothelial growth factor receptor 3 (Homo sapiens, UniProt P35916); format: functional;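 also: value from a kinome-wide profiling panel, with FLT4 as the panel member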
[34] = molecular target: Dual specificity tyrosine-phosphorylation-regulated kinase 1A (Homo sapiens, UniProt Q13627); format: functional;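 also: measured against DYRK1A as one member of a broad kinome profiling panel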
[35] = molecular target: Dual specificity tyrosine-phosphorylation-regulated kinase 1B (Homo sapiens, UniProt Q9Y463); test: Navigating the Kinome. Panel member name: DYRK1B; format: functional
Sequence of Dual specificity tyrosine-phosphorylation-regulated kinase 1B (Q9Y463 whole entry): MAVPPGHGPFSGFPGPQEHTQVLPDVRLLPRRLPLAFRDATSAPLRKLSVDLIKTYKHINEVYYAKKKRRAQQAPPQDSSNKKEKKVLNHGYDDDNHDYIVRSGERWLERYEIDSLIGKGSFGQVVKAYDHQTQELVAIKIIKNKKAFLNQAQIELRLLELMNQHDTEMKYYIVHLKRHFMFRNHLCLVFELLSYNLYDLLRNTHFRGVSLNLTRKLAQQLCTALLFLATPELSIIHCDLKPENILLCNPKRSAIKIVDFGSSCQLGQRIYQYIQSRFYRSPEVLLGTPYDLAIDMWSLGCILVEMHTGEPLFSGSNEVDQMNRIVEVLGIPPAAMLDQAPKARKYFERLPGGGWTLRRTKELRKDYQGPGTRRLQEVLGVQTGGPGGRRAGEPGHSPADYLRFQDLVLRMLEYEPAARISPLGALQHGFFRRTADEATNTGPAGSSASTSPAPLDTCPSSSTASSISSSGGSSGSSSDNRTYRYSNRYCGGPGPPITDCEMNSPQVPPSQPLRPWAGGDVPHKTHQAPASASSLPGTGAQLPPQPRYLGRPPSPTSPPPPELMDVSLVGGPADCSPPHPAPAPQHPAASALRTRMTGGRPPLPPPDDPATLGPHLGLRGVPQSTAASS

[36] = molecular target: Platelet-derived growth factor receptor alpha (Homo sapiens, UniProt P16234); test: Navigating the Kinome. Panel member name: PDGFRA; format: functional
[37] = molecular target: Casein kinase I isoform alpha (Homo sapiens, UniProt P48729); format: functional
Sequence of Casein kinase I isoform alpha (P48729 whole entry, canonical isoform): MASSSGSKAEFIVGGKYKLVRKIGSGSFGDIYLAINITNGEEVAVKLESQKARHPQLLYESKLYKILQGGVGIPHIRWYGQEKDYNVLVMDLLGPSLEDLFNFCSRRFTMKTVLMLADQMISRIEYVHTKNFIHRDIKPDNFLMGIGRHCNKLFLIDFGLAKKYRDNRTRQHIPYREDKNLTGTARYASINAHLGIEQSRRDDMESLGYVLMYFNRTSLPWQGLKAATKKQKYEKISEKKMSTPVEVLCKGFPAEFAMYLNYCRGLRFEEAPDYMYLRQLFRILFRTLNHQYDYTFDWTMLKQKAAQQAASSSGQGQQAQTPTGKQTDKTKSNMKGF

[38] = molecular target: Mitogen-activated protein kinase kinase kinase kinase 2 (Homo sapiens, UniProt Q12851); format: functional;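 also: measured as one member of a kinome-wide kinase panel, with MAP4K2 as the panel entry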
Sequence of Mitogen-activated protein kinase kinase kinase kinase 2 (Q12851 whole entry): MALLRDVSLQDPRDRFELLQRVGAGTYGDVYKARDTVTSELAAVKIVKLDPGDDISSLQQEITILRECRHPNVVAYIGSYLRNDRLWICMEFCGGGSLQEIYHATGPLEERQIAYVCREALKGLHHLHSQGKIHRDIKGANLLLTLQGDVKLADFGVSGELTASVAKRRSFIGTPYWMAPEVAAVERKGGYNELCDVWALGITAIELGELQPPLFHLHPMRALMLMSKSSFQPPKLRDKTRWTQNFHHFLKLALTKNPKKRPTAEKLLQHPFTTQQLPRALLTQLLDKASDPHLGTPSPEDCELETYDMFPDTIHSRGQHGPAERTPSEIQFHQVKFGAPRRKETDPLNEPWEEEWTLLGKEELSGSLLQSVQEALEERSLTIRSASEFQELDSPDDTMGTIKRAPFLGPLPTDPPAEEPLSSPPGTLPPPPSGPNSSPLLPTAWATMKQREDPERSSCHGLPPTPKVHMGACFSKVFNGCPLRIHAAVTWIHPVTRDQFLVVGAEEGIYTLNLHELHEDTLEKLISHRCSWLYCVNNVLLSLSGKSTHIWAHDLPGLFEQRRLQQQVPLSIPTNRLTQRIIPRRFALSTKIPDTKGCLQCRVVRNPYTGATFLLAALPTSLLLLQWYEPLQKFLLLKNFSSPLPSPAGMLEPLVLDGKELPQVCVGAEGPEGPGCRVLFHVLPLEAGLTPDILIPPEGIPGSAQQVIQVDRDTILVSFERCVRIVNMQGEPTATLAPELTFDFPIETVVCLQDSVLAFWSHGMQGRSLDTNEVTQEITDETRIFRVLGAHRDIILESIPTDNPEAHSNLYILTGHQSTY

[39] = molecular target: Dual specificity protein kinase CLK4 (Homo sapiens, UniProt Q9HAZ1); format: functional
Sequence of Dual specificity protein kinase CLK4 (Q9HAZ1 whole entry): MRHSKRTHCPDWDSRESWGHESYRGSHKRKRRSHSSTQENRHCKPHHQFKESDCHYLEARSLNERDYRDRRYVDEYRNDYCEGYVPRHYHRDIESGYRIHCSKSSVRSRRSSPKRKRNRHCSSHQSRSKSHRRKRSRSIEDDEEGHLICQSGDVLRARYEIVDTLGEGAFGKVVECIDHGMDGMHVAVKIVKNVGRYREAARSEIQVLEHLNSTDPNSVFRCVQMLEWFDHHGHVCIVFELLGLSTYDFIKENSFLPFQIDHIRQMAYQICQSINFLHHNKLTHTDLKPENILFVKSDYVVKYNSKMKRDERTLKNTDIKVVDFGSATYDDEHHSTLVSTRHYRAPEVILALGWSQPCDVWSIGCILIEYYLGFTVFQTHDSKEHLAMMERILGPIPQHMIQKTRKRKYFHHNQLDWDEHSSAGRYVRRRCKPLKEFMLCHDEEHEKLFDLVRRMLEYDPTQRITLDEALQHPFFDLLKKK

[40] = molecular target: Cyclin-dependent kinase 7 (Homo sapiens, UniProt P50613); format: functional;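 also: value comes from a kinome-wide kinase profiling panel in which CDK7 is one member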
Aurora kinase B = Aurora kinase B (Homo sapiens, UniProt Q96GD4); format: functional
[41] = molecular target: Tyrosine-protein kinase BTK (Homo sapiens, UniProt Q06187); format: functional
[42] = molecular target: Tyrosine-protein kinase ABL1 (Homo sapiens, UniProt P00519); format: functional
[43] = molecular target: Mitogen-activated protein kinase 8 (Homo sapiens, UniProt P45983); format: functional;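 also: value comes from one member of a kinome-wide kinase profiling panel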
[44] = molecular target: Serine/threonine-protein kinase PAK 4 (Homo sapiens, UniProt O96013); format: functional;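 also: value obtained within a kinome profiling panel in which PAK4 was one of the panel members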
Focal adhesion kinase 1 = Focal adhesion kinase 1 (Homo sapiens, UniProt Q05397); format: functional;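 also: measured as one member of a kinome panel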
Activin receptor type-1 = Activin receptor type-1 (Homo sapiens, UniProt Q04771); test: Navigating the Kinome. Panel member name: ACVR1; format: functional
[45] = molecular target: Tyrosine-protein kinase receptor TYRO3 (Homo sapiens, UniProt Q06418); format: functional;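 also: TYRO3 value obtained as one member of a kinome-wide profiling panel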
Sequence of Tyrosine-protein kinase receptor TYRO3 (Q06418 whole entry): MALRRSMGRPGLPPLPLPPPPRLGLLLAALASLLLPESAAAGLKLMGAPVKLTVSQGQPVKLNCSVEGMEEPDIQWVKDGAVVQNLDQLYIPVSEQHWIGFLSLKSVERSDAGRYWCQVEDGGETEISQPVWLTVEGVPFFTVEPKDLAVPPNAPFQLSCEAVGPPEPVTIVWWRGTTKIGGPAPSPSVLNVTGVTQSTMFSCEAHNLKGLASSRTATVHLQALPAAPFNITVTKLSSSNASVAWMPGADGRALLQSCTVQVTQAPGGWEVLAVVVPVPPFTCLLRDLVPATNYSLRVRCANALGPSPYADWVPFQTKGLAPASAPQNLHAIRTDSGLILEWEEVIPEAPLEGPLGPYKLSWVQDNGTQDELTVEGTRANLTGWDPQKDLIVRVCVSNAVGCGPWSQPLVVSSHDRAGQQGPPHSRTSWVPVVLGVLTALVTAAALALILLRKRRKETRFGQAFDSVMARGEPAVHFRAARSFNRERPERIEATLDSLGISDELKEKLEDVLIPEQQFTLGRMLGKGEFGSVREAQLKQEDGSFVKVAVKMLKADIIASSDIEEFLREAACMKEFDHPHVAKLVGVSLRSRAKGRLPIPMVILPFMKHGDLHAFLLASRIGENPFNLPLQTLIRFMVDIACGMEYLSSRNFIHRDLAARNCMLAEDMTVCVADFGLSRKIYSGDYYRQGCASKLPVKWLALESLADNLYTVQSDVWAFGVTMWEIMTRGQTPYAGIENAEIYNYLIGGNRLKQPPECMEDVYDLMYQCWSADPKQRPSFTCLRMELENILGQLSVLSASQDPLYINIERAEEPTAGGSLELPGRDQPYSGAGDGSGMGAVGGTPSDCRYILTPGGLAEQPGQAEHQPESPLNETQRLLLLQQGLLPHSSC

[46] = molecular target: Macrophage colony-stimulating factor 1 receptor (Homo sapiens, UniProt P07333); format: functional;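 also: value comes from the Navigating the Kinome screening panel, CSF1R member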
[47] = molecular target: Inhibitor of nuclear factor kappa-B kinase subunit epsilon (Homo sapiens, UniProt Q14164); test: Navigating the Kinome. Panel member name: IKBKE; format: functional

## COc1ccc(-c2nnc(S)[nH]2)cc1
[1]
  EC50: > 112 µM (not active)
[2]
  IC50: > 99 µM (inactive)
[3]
  IC50: 50.1 µM (active)
[4]
  IC50: 1.95 µM (active)
[5]
  IC50: > 99 µM (inactive)
Leucine aminopeptidase
  IC50: 39.5 µM (active)
[6]
  IC50: 1.19 µM (active)
[7]
  AC50: 0.008 µM (active)
[8]
  IC50: 1.22 µM (active)
Phosphomannomutase 2
  IC50: > 100 µM (inactive)
[9]
  IC50: > 100 µM (inactive)

## Cc1[nH]c2ccccc2c1C(=O)COC(=O)c1ccc([N+](=O)[O-])s1
[10]
  CC50: 29 µM (active)
[11]
  CC50: 32.3 µM (active)
[12]
  EC50: > 30 µM (not active)
[13]
  CC50: 25.1 µM (active)
[14]
  CC50: 16.3 µM (active)
[15]
  CC50: 32.2 µM (active)
[16]
  EC50: 1.75 µM (active)
[17]
  CC50: > 63.9 µM (active)
[18]
  CC50: 29.6 µM (active)
[19]
  CC50: 30.3 µM (active)
[20]
  CC50: 25.7 µM (active)
[21]
  CC50: > 20 µM (active)
[22]
  CC50: 21 µM (active)
[23]
  CC50: 20.7 µM (active)
cells
  IC50: 3.59 µM (active)

## CC(C)(O)c1nnc2ccc(-c3c(-c4ccc(F)cc4F)nc4occn34)nn12
[24]
  Ki: 2.51 µM (active)
[25]
  Ki: 3.16 µM (active)
[26]
  Ki: 5.01 µM (active)

## CCc1cnn(Cc2cccc3ccccc23)c(=O)c1C(C#N)c1ccccc1 (centres undefined)
[27]
  IC50: 15.2 µM (inactive)
[28]
  IC50: 15.2 µM (inactive)

## CCn1c(=C(C#N)C(=O)O)sc(=CNc2ccccc2)c1=O
[29]
  Ki: 1.58 µM (active)
[30]
  Ki: 5.01 µM (active)
[31]
  Ki: 6.31 µM (active)
[32]
  Ki: 5.01 µM (active)
[33]
  Ki: 1.58 µM (active)
[34]
  Ki: 1.58 µM (active)

## Clc1cc2nnc(-c3ccccc3)n2cn1
[35]
  Ki: 79.4 µM (active)
[36]
  Ki: 15.8 µM (active)
[37]
  Ki: 39.8 µM (active)
[38]
  Ki: 12.6 µM (active)
[39]
  Ki: 63.1 µM (active)
[40]
  Ki: 20 µM (active)
Aurora kinase B
  Ki: 25.1 µM (active)
[41]
  Ki: 50.1 µM (active)
[42]
  Ki: 63.1 µM (active)

## Nc1nc2ncc(-c3ccccc3)cn2n1
[43]
  Ki: 50.1 µM (active)
[44]
  Ki: 25.1 µM (active)
[35]
  Ki: 31.6 µM (active)
Focal adhesion kinase 1
  Ki: 100 µM (active)
Activin receptor type-1
  Ki: 39.8 µM (active)
[37]
  Ki: 25.1 µM (active)
[45]
  Ki: 50.1 µM (active)
[38]
  Ki: 79.4 µM (active)
[39]
  Ki: 15.8 µM (active)
[46]
  Ki: 100 µM (active)
[25]
  Ki: 50.1 µM (active)
[47]
  Ki: 63.1 µM (active)
[34]
  Ki: 50.1 µM (active)

Source: ChEMBL document CHEMBL1201862, “PubChem BioAssay data set” (2004)
